Laboratory results reported in ChEMBL document CHEMBL1136950, “Thiopyrophosphoantigens: solid-phase synthesis and in vitro characterization of a new class of Vgamma9 Vdelta2 T cells activators” (J Med Chem, 2009).
Calls of active or inactive are those of the source. No cut-off for these calls is given here.

Experiments:
T-cell [1] = assay: Immunostimulatory activity in human Vgamma9/Vdelta2 T cells assessed as TNFalpha production after 12 hrs by ELISA; assay type: functional, cell-based
T-cell [2] = assay: Immunostimulatory activity in human Vgamma9/Vdelta2 T cells assessed as expansion induces at 20 uM; assay type: functional, cell-based
[3] = Stability in presence alkaline phosphatase after 20 mins by HPLC-MS analysis
[4] = Stability in presence alkaline phosphatase after 60 mins by HPLC-MS analysis
[5] = Stability in presence alkaline phosphatase after 30 mins by HPLC-MS analysis
[6] = Stability in presence of alkaline phosphatase; details: isolated protein

SMILES | EC50 (T-cell [1]) [µM] | also measured
O=P(O)(O)OP(=O)(O)SCc1ccccc1 | 55 | –
CC1(CCSP(=O)(O)OP(=O)(O)O)COC1 | 14 | –
O=P(O)(O)OP(=O)(O)SCCCCCl | 100 | –
N#CCCCCSP(=O)(O)OP(=O)(O)O | 1 | –
O=P(O)(O)OP(=O)(O)SCCOC1CCCCO1 (stereo not drawn) | 12 | –
O=P(O)(O)OP(=O)(O)SCCCCF | 10.8 | –
C/C(=C\CSP(=O)(O)OP(=O)(O)O)CO | 0.0048 | Activity (T-cell [2]): Active
CCSCCCSP(=O)(O)OP(=O)(O)O | 0.055 | –
C=CCCCCCSP(=O)(O)OP(=O)(O)O | 6.3 | –
C=C(C)CCSP(=O)([O-])OP(=O)([O-])[O-].[Na+].[Na+].[Na+] | 3.75 | remaining at 20 min [3]: 48%; remaining at 1 h [4]: 27%; remaining at 0.5 h [5]: 54%; Stability [6]: 94%
O=P(O)(O)OP(=O)(O)SCCC1OCCO1 | 0.056 | –
CC(O)CCSP(=O)(O)OP(=O)(O)O (stereo not drawn) | 75 | –
O=P(O)(O)OP(=O)(O)SCCOCCCl | 0.39 | –
